According to ChEMBL document CHEMBL5604062, “ASAP - ZIKV NS2B-NS3 protease fluorescence dose response” (2024):
Values joined by “and” are separate entries in the source; they are usually repeats but may differ in a detail not shown here. Equal entries are not always repeated.

Molecular target: Nonstructural protein 3 (Zika virus, UniProt A0A024AXB9)
Test: Functional biochemical assay to identify treatments for viral infectious disease that targets Zika NS2B-NS3 protease. Utilizing a direct enzyme activity measurement method, reading the fluorescence intensity is used to characterize the relative potency of inhibitors as IC50.
Set-up: species or system PRVABC59

Nonstructural protein 3, sequence (A0A024AXB9 whole entry): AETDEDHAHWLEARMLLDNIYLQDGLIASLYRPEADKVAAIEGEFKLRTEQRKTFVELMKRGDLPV

Row | SMILES | IC50
1 | C=CC[C@H](Nc1ccc(-c2nn[nH]n2)cc1)c1cc(Cl)cc(NC(=O)OCc2ccccc2)c1 | 11.3 µM
2 | c1ccc2c(CN3CCC(c4c[nH]c5cccnc45)CC3)c[nH]c2c1 | 25.2 µM
3 | Cc1c(C(=O)Nc2cc(C3CCOCC3)ccc2F)cc(C2CC2)n1C | > 25 µM
4 | N#Cc1cc(Cl)cc(S(=O)(=O)Nc2cccc(-c3nnn[nH]3)c2)c1 | > 99.5 µM
5 | N[C@@H](CCO)c1cccc(NC(=O)c2cc(Cl)cc(NC(=O)OCc3ccccc3)c2)c1 | 39.7 µM
6 | Cc1nnc(S(=O)(=O)N2CCC([C@H](NC(=O)OCc3ccccc3)C(=O)Nc3cccc(CN)c3)CC2)s1 | > 99.5 µM
7 | O=C(O)Cc1cn2nc(-c3cc(Cl)cc(NC(=O)OCc4ccccc4)c3)ccc2n1 | > 99.5 µM
8 | O=C(Nc1ccc2c(c1)CNC2)c1cc(F)cc2c1CCNC2 | 0.115 µM
9 | O=C(Nc1cc(Cl)cc(C(=O)N2CCC(C(=O)O)CC2)c1)OCc1ccccc1 | > 99.5 µM
10 | O=C(O)c1cc(Cl)ccc1S(=O)(=O)NC1CCN(c2nc(C3CC3)cc(C(F)(F)F)n2)CC1 | 46.6 µM
11 | CC(C)Oc1cncc(N2CC[C@@H](CO)C2)c1 | > 99.5 µM
12 | NCc1cc(Cl)cc(C(=O)Nc2cccc(-c3nn[nH]n3)c2)c1 | > 99.5 µM
13 | N[C@@H](Cc1c[nH]cn1)C(=O)N1CCC2(CC1)OCCc1cc(O)ccc12 | > 99.5 µM
14 | Oc1cc(N2CCN(Cc3c[nH]c4ccccc34)CC2)ccn1 | > 99.5 µM
15 | NCc1cccc(NC(=O)c2cc(Br)cc(NC(=O)OCc3ccccc3)c2)c1 | 7.91 µM
16 | NCc1cccc(NC(=O)[C@@H](NC(=O)OCc2ccccc2)c2ccc(F)cc2)c1 | > 99.5 µM
17 | NCc1cccc(NC(=O)[C@H]2c3ccc(Br)cc3CCN2C(=O)OCc2ccccc2)c1 | 53.8 µM
18 | CCn1c(=O)c(N2CC[C@H]3[C@H]2[C@H]3C(F)(F)F)nc2ccccc21 | > 99.5 µM
19 | CO[C@H]1CCCN(C(=O)c2ccnc(NC(=O)c3cc(C4CC4)n(C)c3C)c2)C1 | > 25 µM
20 | c1cncc(C2CCN(Cc3c[nH]c4ccccc34)CC2)c1 | 32.6 µM

Row | SMILES | IC50
21 | CN(C)c1ccc(/C=C/C(=O)C(=O)N2CCOCC2)cc1 | 83.2 µM
22 | NCc1cccc(NC(=O)[C@@H](NC(=O)OCc2ccccc2)c2cccc(-c3ccc(CN)cc3F)c2)c1 | 32.3 µM
23 | CC(C)(C)O[C@H]1CCCN(C(=O)Nc2ccc3c(c2)CNC3)C1 | > 25 µM
24 | N=C(N)NCCc1ccc(NC(=O)c2ccccc2)cc1 | > 198 µM
25 | CCn1cc(-c2c[nH]c3ncccc23)nc(N2CC[C@@H](CO)C2)c1=O | > 99.5 µM
26 | Cc1c(C(=O)Nc2cc(-c3cccnc3)ccn2)cc(C2CC2)n1C | 5.84 µM and > 25 µM
27 | Cn1nc([C@H](Nc2cc([C@H]3CCOC3)ccn2)C(F)(F)F)cc1C1CC1 | > 25 µM
28 | NCc1cccc(NC(=O)c2cc(Cl)cc(CNC(=O)OCc3ccccc3)c2)c1 | 22.1 µM
29 | Cn1ccnc1S(=O)(=O)N[C@@H](C(=O)Nc1cccc(CN)c1)c1ccc(OCc2ccccc2)cc1 | > 99.5 µM
30 | NCc1cc(NC(=O)c2cc(Cl)cc(NC(=O)OCc3ccccc3)c2)cc(C2=CC[C@H](C(=O)O)C2)c1 | 7.96 µM
31 | NCc1ccc(-c2ncc(OCC3CCNCC3)nc2-c2ccc(C3CCOCC3)cc2)cc1 | > 99.5 µM
32 | CNC(=O)[C@H](Nc1ccc(-c2nnn[nH]2)cc1)c1cc(Cl)cc(C2CC2)c1 | > 99.5 µM
33 | C=CC[C@H]1c2ccc(NC(=O)c3cc(Br)cc4[nH]ccc34)cc2CN1C(=O)OC(C)(C)C | > 25 µM
34 | N[C@H]1CC[C@H](c2ccc(NC(=O)c3cc(Cl)cc(NC(=O)OCc4ccccc4)c3)cc2)C1 | 5.01 µM
35 | NCc1ccccc1C1CCN(C(=O)[C@@]23CNC[C@]2(C(F)(F)F)C3)CC1 | > 99.5 µM
36 | CN1CCN(C2CCN(C(=O)c3cc(C=O)n(C)c3)CC2)CC1 | > 99.5 µM
37 | NCc1cccc(NC(=O)[C@@H](Cc2ccccc2)NC(=O)OCc2ccccc2)c1 | > 99.5 µM
38 | c1ccc2c(CN3CCC(c4cnco4)CC3)c[nH]c2c1 | 56.1 µM
39 | O=C1Cc2cc(NC(=O)c3cc(Cl)cc(NC(=O)OCc4ccccc4)c3)ccc2N1 | > 99.5 µM
40 | C[C@H](C(=O)O)c1cccc(NC(=O)c2cc(Cl)cc(NC(=O)OCc3ccccc3)c2)c1 | > 99.5 µM
